pIC50: −log10 of the molar value.

The target in one experiment is EGFR (Homo sapiens (Human), UniProt P00533). The experiment is described as follows: HTRF KinEASE-TK kinase assay, EGFR. As to conditions: 3 h preincubation; for remaining activity at 1 µM: 1 μM compound, read-out: % EGFR Remaining activity vs DMSO (1 μM, 3 h); for remaining activity at 10 µM: 10 μM compound, read-out: % EGFR Remaining activity vs DMSO (10 μM, 3 h). It counts as biochemical. In outline: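 Buffer contained 5 mM MgCl2, 2 mM MnCl2 and 1 mM TCEP; compounds at two final concentrations, 1 and 10 uM, with 0.5% DMSO, pre-incubated with the enzyme.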
EGFR, sequence (P00533 25-1210): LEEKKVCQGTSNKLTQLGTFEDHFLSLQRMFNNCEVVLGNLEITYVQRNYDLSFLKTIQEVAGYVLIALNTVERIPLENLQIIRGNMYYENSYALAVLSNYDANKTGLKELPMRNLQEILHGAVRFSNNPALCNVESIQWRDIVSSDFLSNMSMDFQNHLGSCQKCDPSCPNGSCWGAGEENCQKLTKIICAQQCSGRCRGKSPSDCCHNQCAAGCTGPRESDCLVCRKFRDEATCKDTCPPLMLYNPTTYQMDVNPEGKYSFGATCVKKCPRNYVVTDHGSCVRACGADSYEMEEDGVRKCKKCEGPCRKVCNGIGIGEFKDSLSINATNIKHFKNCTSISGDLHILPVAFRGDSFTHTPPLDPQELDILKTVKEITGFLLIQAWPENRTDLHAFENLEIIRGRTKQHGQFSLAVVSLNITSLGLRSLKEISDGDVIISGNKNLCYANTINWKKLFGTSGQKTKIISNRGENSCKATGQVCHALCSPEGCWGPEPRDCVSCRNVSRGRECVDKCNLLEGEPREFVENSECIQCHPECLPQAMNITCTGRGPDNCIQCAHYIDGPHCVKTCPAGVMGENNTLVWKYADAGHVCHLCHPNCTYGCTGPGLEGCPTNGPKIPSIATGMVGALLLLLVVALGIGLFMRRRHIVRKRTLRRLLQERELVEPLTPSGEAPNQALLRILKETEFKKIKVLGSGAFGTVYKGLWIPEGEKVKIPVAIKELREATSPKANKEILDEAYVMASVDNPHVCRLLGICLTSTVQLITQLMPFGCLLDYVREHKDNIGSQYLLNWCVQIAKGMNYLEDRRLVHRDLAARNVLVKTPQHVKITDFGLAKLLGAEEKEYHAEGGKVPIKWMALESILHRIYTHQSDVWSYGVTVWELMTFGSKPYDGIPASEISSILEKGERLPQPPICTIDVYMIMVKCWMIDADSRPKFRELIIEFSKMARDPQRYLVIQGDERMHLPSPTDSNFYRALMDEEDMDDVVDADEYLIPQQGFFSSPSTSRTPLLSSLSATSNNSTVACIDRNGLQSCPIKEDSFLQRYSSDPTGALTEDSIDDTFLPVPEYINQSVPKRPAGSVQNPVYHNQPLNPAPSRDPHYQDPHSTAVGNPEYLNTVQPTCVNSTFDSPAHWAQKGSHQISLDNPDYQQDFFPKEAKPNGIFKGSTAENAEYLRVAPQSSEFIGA

In the next experiment the target is BTK (Homo sapiens (Human), UniProt Q06187). The experiment is described as follows: HTRF KinEASE-TK kinase assay, BTK. As to conditions: 3 h preincubation; for remaining activity at 1 µM: 1 μM compound, read-out: % BTK Remaining activity vs DMSO (1 μM, 3 h); for remaining activity at 10 µM: 10 μM compound, read-out: % BTK Remaining activity vs DMSO (10 μM, 3 h). It counts as biochemical. In outline:
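Read-out was the 665 nm to 620 nm ratio, taken 60 min after detection, reflecting phosphorylated biotinylated substrate. Before this, BTK reacted 45 min with substrate and ATP in kinase buffer supplemented with MnCl2 (10 mM), MgCl2 (5 mM), ATPγS (1 uM) and TCEP (1 mM).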

A further experiment concerns the target BMX (Homo sapiens (Human), UniProt P51813). The experiment in a line: HTRF KinEASE-TK kinase assay, BMX. It counts as biochemical. As to conditions: for remaining activity at 1 µM: 1 uM compound; for remaining activity at 1 µM / remaining activity at 10 µM: 3 h preincubation; for remaining activity at 10 µM: 10 uM compound. An outline of the steps:
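Phosphorylation was quantified by HTRF KinEASE-TK as the 665/620 nm ratio, read 60 min after EDTA stop with SA-XL665 (31.25 nM) and europium antibody. Before the reaction, 3.03 nM BMX was preincubated with compound for 3 hours at room temperature, and the reaction was started with biotinylated substrate plus ATP.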
Background: Time-resolved FRET reads energy transfer from a long-lived donor to a nearby acceptor.

The next experiment deals with JAK3 (Homo sapiens (Human), UniProt P52333). The experiment in a line: HTRF KinEASE-TK kinase assay, JAK3. It counts as biochemical. As to conditions: for remaining activity at 1 µM: read-out: % JAK3 Remaining activity vs DMSO (1 μM, 3 h); for remaining activity at 10 µM: read-out: % JAK3 Remaining activity vs DMSO (10 μM, 3 h). In outline: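 HTRF read-out: the Em665/Em620 ratio, measured 60 min after stopping with EDTA, 31.25 nM SA-XL665 and 100-fold diluted Eu-antibody, was taken as phosphorylated substrate. Beforehand, 0.21 nM JAK3 (0.0133 ng/µl) sat with compound for 3 h at room temperature, then biotinylated substrate plus ATP started the reaction.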
JAK3, sequence (P52333 781-1124): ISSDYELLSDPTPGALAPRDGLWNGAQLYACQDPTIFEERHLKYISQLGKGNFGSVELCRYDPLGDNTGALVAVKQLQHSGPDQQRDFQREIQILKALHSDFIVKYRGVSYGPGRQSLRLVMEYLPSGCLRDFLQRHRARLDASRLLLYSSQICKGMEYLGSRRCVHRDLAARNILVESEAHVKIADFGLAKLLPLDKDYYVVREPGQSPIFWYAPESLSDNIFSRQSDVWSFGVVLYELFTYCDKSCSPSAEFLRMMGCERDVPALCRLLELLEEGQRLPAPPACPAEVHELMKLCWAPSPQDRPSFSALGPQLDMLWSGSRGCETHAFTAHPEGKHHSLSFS

For the next experiment, the target named is FGFR4 (Homo sapiens (Human), UniProt P22455). The experiment is described as follows: HTRF KinEASE-TK kinase assay, FGFR4. Format: biochemical. As to conditions: for remaining activity at 1 µM: read-out: % FGFR4 Remaining activity vs DMSO (1 μM, 3 h); for remaining activity at 10 µM: read-out: % FGFR4 Remaining activity vs DMSO (10 μM, 3 h). An outline of the steps:
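HTRF ratio (Em 665/620 nm) measured 60 min after EDTA stop with SA-XL665 (31.25 nM) and europium antibody reflects phosphorylated biotinylated substrate. Before substrate/ATP addition, 5.12 nM (0.333 ng/ul) FGFR4 sat with compound 3 h at room temperature.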

In experiment [1] the target is His-tagged BTK protein (SEQ ID NO: 1) (Homo sapiens (Human), UniProt Q06187). The experiment in a line: Intact mass analysis (LC-MS/MS) of covalent modification. Format: binding. As to conditions: His-tagged BTK (unmodified 32,650 Da) incubated with compound. The protocol:
The covalent modification of the proteins with the compounds were evaluated using intact mass analysis by liquid chromatography-mass spectrometry instrument (LC-MS/MS).
The reaction solution (20 μL) was prepared in 96-well plate and contained the protein (2 μM), the compound (100 μM), HEPES buffer (20 mM, pH 8), 2% DMSO, 2% glycerol, and 150 mM NaCl. The reaction was allowed to proceed for 24 h at 25° C. The reaction solution (1 μL) was injected into the LC/MS/MS without any further sample preparation.
The LC-MS/MS instrument comprises of a Waters G2-XS quadrupole-time of flight (QTof) mass spectrometer and a Waters Acuity I-class Ultra-High Performance Liquid Chromatography (UPLC) system. The I-class UPLC system includes a binary solvent manager (BSM), and a Acquity sample manager (SM). The mobile phase consisted of: A) 0.1% (v/v) formic acid in MilliQ water; B) 0.1% (v/v) formic acid acetonitrile. Gradients were run over 5 min and proceeded as follows: A:B, 85:15, 0.0-0.7 min, 85:15→15:85, 0.7-1.5 min, 10:90, 1.5-4 min, 10:90→85:15, 4-4.5 min, 85:15, 4.5-5 min. The analytical column was a Waters BEH C4 column 1.7 μm (50×1 mm) column with pore sizes of […]. The TOF MS data was collected in positive ion mode (m/z of 400-2000 Da) using MassLynx software (Waters).
The spectral deconvolution was performed using UNIFI software (Waters). The added mass of the protein upon covalent modification to cysteine residues were specified. Multiple modification of up to 8 cysteine was allowed. All the adducts with signal intensities of <2% of the base peak were ignored. The % modification was calculated as the adduct signal intensity over the total intensities of the protein peaks and the adducts.

BTK, sequence (Q06187 whole entry): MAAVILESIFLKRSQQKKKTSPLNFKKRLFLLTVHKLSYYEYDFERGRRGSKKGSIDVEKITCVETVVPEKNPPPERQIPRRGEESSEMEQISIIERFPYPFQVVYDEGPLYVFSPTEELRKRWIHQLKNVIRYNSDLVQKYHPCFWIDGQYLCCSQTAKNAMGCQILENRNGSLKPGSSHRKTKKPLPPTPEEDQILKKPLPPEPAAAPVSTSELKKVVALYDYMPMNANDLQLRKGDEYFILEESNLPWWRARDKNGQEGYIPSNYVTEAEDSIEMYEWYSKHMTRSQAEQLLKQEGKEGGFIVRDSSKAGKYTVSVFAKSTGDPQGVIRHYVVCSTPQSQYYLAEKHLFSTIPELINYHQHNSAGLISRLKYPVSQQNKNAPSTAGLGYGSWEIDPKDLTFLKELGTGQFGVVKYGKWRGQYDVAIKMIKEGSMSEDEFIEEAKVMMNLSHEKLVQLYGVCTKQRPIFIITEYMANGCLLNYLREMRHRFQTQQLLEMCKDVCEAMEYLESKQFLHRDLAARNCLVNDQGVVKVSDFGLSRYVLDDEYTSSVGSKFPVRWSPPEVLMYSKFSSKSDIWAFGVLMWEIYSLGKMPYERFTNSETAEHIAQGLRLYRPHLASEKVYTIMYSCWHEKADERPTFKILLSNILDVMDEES
BMX, sequence (P51813 whole entry): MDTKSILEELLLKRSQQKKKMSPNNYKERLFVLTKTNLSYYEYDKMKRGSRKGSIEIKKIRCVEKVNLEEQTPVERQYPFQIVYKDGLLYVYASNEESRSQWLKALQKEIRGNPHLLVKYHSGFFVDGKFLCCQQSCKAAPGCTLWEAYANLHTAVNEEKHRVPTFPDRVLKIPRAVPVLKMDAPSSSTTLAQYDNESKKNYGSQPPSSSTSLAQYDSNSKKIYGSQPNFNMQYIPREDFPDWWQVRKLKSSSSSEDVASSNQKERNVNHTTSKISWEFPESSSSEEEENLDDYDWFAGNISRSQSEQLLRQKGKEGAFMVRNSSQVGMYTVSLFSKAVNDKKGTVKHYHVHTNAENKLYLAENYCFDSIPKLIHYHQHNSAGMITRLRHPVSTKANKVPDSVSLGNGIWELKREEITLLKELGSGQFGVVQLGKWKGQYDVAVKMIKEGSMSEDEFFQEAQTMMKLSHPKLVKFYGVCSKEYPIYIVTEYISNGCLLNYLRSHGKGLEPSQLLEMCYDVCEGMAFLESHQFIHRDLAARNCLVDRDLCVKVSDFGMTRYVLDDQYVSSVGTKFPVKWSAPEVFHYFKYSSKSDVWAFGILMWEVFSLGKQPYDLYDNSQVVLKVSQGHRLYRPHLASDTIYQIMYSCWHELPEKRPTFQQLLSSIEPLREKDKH
FGFR4, sequence (P22455 22-802): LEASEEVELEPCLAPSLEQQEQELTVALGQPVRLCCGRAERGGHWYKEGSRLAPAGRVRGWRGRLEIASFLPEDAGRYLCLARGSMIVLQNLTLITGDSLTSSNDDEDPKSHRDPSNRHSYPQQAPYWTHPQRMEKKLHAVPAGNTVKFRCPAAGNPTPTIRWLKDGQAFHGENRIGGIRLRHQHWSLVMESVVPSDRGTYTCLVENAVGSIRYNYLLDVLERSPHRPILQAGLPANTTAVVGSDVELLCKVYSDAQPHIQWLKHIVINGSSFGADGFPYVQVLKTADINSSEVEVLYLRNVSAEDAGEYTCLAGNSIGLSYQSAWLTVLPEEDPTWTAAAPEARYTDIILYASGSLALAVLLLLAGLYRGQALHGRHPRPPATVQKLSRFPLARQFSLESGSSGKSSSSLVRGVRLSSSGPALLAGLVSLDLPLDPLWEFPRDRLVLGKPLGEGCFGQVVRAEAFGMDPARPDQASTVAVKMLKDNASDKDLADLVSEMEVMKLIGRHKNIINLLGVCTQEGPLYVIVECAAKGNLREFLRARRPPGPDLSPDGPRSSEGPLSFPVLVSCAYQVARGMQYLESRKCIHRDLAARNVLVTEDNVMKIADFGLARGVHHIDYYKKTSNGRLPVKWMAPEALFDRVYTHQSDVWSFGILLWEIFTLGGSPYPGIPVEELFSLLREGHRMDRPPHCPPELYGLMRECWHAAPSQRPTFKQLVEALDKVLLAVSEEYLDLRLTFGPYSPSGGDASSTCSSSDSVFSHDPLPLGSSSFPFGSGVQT
His-tagged BTK protein (SEQ ID NO: 1), sequence (Q06187 other isoform, or with tags, fused parts or gaps): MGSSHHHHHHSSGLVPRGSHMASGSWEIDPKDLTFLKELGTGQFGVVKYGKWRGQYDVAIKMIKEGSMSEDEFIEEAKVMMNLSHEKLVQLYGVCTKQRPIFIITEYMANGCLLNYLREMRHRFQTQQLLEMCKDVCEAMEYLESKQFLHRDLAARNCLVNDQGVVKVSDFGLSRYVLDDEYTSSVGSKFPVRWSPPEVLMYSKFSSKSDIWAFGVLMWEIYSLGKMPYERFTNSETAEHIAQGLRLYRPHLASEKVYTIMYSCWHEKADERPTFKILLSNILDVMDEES

Consider `COCCOc1ccc(Nc2ncc(F)c(NCCCNS(=O)(=O)c3c(F)c(F)c(F)c(F)c3CF)n2)cc1` [Compound I-56, 2,3,4,5-tetrafluoro-N-(3-((5-fluoro-2-((4-(2-methoxyethoxy)phenyl)amino)pyrimidin-4-yl)amino)propyl)-6-(fluoromethyl)benzenesulfonamide], for which the remaining activity (usually what remains of the control signal, in per cent) at 1 µM is > 90% on EGFR; < 50% on BTK; < 50% on BMX; < 50% on JAK3; 50 to 90% at FGFR4. In addition, the remaining activity at 10 µM on EGFR is > 90%; on BTK it was < 50%; at BMX it was < 50%; on JAK3, < 50%; on FGFR4, < 50%. In addition, the pIC50 (in general, the IC50 on a negative log10 scale, so that one unit is a factor of ten) against BMX (dose response) was > 6.00. Also, in experiment [1], the “covalent adduct mass (intact mass analysis, modification by one molecule)” value was 33,209 Da.
As to `COCCOc1ccc(Nc2ncc(F)c(NCCCNS(=O)(=O)c3c(F)c(F)c(F)c(F)c3OC(F)F)n2)cc1` [Compound I-55, 2-(difluoromethoxy)-3,4,5,6-tetrafluoro-N-(3-((5-fluoro-2-((4-(2-methoxyethoxy)phenyl)amino)pyrimidin-4-yl)amino)propyl)benzenesulfonamide], the remaining activity at 1 µM was > 90% on EGFR; < 50% at BTK; < 50% at BMX; < 50% at JAK3; 50 to 90% at FGFR4. For the same compound, the remaining activity at 10 µM at EGFR is > 90%; on BTK it was < 50%; on BMX, < 50%; on JAK3 it was < 50%; at FGFR4, < 50%. Also, on JAK3 (dose response), the pIC50 is > 6.00. Also, in experiment [1], the “covalent adduct mass (intact mass analysis, modification by one molecule)” value was 33,243 Da.

The values are drawn from patent US20240018153A1, “BENZENESULFONAMIDE DERIVATIVES AND USES THEREOF” (2692372 ONTARIO, INC., priority 2020, published 2024).
